Several values for one entry are separate records, joined by “and”; a condition that tells them apart may be missing. Equal entries are not always repeated.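 Step 1: Grow cells in 96-well plates. Step 2: Expose to compound for 48 hours at 5 concentrations. Step 3: Interpolate endpoints linearly; if unreached, use highest concentration. GI50: concentration for 50% inhibition of growth. TGI is the concentration that stops growth completely.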 A value given as a limit tells only on which side of the number the result lay.

What all share (test): DTP human tumour cell line panel, 48 h
The subject of test [1] is UO-31 renal.
Test [2] relates to HCT-116 colon.
The test system of test [3] is NCI/ADR-RES ovarian.
Test [4] relates to LOX IMVI melanoma.
The subject of test [5] is UACC-257 melanoma.
For test [6], the system named is OVCAR-4 ovarian.
For test [7], the system named is HOP-62 NSCLC.
The test system of test [8] is CAKI-1 renal.
For test [9], the system named is A498 renal.
In test [10] the test system is SK-MEL-28 melanoma.

Usually GI50 stands for the concentration at which growth is held to half of that of the control. Usually TGI stands for the concentration giving total growth inhibition. The low end stands for greater sensitivity of the cells, the high end for lower sensitivity of the cells. Consider `C=CC(=O)NCCOc1cccc(Nc2cc(NCCCNC(=O)C3CCC3)c(Br)cn2)c1`, for which the GI50 in test [1] is 0.372 µM; in [2] it was 0.798 µM; in test [3], 8.74 µM; in test [4], 0.776 µM; in test [5], 3.34 µM; in test [6] it was 1.26 µM. The GI50 was 0.302 µM in test [7], 0.434 µM in test [8], 0.52 µM in [9] and 1.64 µM in [10]. Also, the TGI in test [1] was 1.11 µM; in [2] it was greater than 25 µM; in [3] it was greater than 25 µM; in test [4] it was 5.4 µM; in [5], greater than 25 µM; in test [6] it was 10.7 µM. Further, the TGI in test [7] is 4.98 µM; in test [8], 1.75 µM; in [9], 1.8 µM; in test [10], 8.78 µM.

With `O=[N+]([O-])c1cccc(/C=C/c2ccccn2)c1`, the GI50 was 23.3 µM in [1]; 7.02 µM in test [2]; 22.9 µM in test [3]; 10.6 µM in test [4]; greater than 100 µM in test [5]; 18.8 µM in test [6]. Moreover, the GI50 in test [7] is 40.7 µM; in [8], 34.5 µM; in test [9], 7.19 µM; in test [10], greater than 100 µM. Moreover, the TGI in [1], in [2], in test [3], in test [4], in test [5] and in test [6] was greater than 100 µM in each case. For the same compound, the concentration for total growth inhibition (TGI) in test [7], in [8], in test [9] and in test [10] was greater than 100 µM in each case.

Consider `CCN1CCC2(CC1)NC(=O)c1c(c3ccc(Cl)c(Cl)c3n1C)C2C#N` (stereo not drawn), for which the GI50 in [1] is 1.84 µM; in [2], 2.49 µM; in test [3] it was 3.6 µM; in [4] it was 1.65 µM; in test [5] it was 1.84 µM; in [6] it was 3.83 µM. Further, the GI50 in test [7] is 1.61 µM; in test [8], 2.25 µM; in [9], 1.34 µM; in test [10], 1.65 µM. In addition, the concentration for total growth inhibition (TGI) in [1] was 5.03 µM; in test [2], 4.29 µM; in [3] it was 13.6 µM; in [4], 3.34 µM; in [5] it was 3.96 µM; in [6], 15.1 µM. Besides, the TGI in [7] is 3.13 µM; in [8] it was 8.23 µM; in test [9], 3.32 µM; in [10], 3.07 µM.

With `COc1ccc2c(c1)CC[C@@H]1[C@@H]2CC[C@]2(C)c3[nH]ncc3C[C@@H]12`, the GI50 was 19.6 µM in test [1]; 12.3 µM in [2]; 15.8 µM in test [3]; 10.8 µM in test [4]; 11.3 µM in [5]; 15.4 µM in test [6]. Besides, the GI50 in test [7] was 24.7 µM; in test [8], 16.2 µM; in [9], 25.9 µM; in test [10], 32.1 µM. In addition, the TGI in [1] is greater than 50 µM; in [2], 31.9 µM; in test [3], greater than 50 µM; in test [4] it was 33.3 µM; in test [5] it was 29.4 µM; in test [6] it was greater than 50 µM. The TGI was greater than 50 µM in [7], 48.8 µM in [8], greater than 50 µM in test [9] and greater than 50 µM in test [10].

For the compound `COc1ccc(N2CCN(CN3CCN(c4ccc(OC)cc4)C3)C2)cc1`, the GI50 in test [1] is greater than 100 µM; in [2], 20.2 µM; in test [3], greater than 100 µM; in test [4] it was 41.3 µM; in test [5], greater than 100 µM; in test [6], greater than 100 µM. In addition, the GI50 in [7] is 81.5 µM; in test [8] it was greater than 100 µM; in test [9], 1.82 µM; in test [10] it was greater than 100 µM. In addition, the TGI in [1] was greater than 100 µM; in [2], 50 µM; in test [3], greater than 100 µM; in test [4], greater than 100 µM; in test [5], greater than 100 µM; in [6] it was greater than 100 µM. The TGI in test [7], in test [8], in test [9] and in test [10] was greater than 100 µM throughout.

For the compound `COc1cc(/C=C/C(=O)NC[C@]2(O)CCC3C4CCc5cc(O)ccc5C4CCC32C)ccc1O` (stereo partly drawn), the GI50 in test [1] is 4.93 µM; in test [2], 7.97 µM; in [3] it was 9.89 µM; in test [4], 8.36 µM; in [5] it was 39.5 µM; in test [6], 7.49 µM. Further, the GI50 is 26.7 µM in [7], 46.9 µM in [8], 74.1 µM in test [9] and 33.9 µM in [10]. Also, the TGI is 49.3 µM in test [1]; 49.3 µM in test [2]; 54.3 µM in test [3]; greater than 100 µM in [4]; greater than 100 µM in test [5]; greater than 100 µM in [6]. Further, the concentration for total growth inhibition (TGI) in [7], in [8], in test [9] and in test [10] was greater than 100 µM in each case.

As for `S=c1nc[nH]c2nc[nH]c12`, the GI50 in test [1] was 4.1 µM and 5.55 µM; in test [2], 5.4 µM; in test [4], 0.321 µM and 3.01 µM; in test [5], > 100 µM and 43.7 µM; in test [6], 70.8 µM and 61.2 µM; in [7], 2.09 µM and 8 µM. Also, the GI50 is 104 µM in test [9] and 79.2 µM in test [10]. In addition, the TGI in test [1] is > 100 µM and 619 µM; in test [2], > 100 µM and 710 µM and > 750 µM; in [3], greater than 735 µM; in test [4], 41.4 µM and 111 µM and 192 µM; in test [5], greater than 750 µM; in [6], > 100 µM and 618 µM and > 750 µM. Also, the TGI was > 100 µM and 526 µM and > 750 µM in test [7]; > 100 µM and 436 µM and > 750 µM in test [8]; 584 µM and 187 µM in test [9]; greater than 750 µM in [10].

For `CC(C)[C@](O)(C(=O)OCC1=CC[N+]2([O-])CC[C@@H](O)[C@@H]12)[C@H](C)O` (stereo partly drawn), the total growth inhibition concentration (TGI) in test [1], in test [2], in test [3], in [4], in [5] and in test [6] was greater than 10000 µM in each case. For the same compound, the total growth inhibition concentration (TGI) in test [7] is greater than 3980 µM; in [8], greater than 9520 µM; in test [9], greater than 10000 µM; in test [10], greater than 10000 µM.

`Cc1cc(C(=O)N[C@@H](CCC(=O)O)C(=O)O)sc1CC[C@@H]1CNc2nc(N)[nH]c(=O)c2C1`: the GI50 in test [1] was less than 0.01 µM; in test [2], less than 0.0127 µM; in [3], 0.0481 µM; in test [4], 0.0268 µM; in [5], 0.0559 µM; in [6] it was 23.3 µM. For the same compound, the GI50 was 0.0496 µM in test [7], less than 0.01 µM in test [8], 0.0598 µM in test [9] and 0.0377 µM in test [10]. Besides, the TGI in test [1], in test [2], in [3], in test [4], in test [5] and in test [6] was greater than 100 µM in each case. Also, the TGI in test [7], in test [8], in test [9] and in test [10] was greater than 100 µM each time.

Values taken from PubChem BioAssay (NCI).
